# Laboratory results taken from patent US20160129011A1, “BICYCLO 2,3-BENZODIAZEPINES AND SPIROCYCLICALLY SUBSTITUTED 2,3-BENZODIAZEPINES” (BAYER PHARMA AKTIENGESELLSCHAFT, priority 2013, published 2016).
# Experiments:
# MOLM-13 cells = assay: Cell proliferation assay (alamarBlue), MOLM-13; assay type: cell-based; conditions: Homo sapiens, MOLM-13; acute myeloid leukaemia cell line, 96 h incubation
# Experimental: (§1) In accordance with the invention, the ability of the substances to inhibit cell proliferation was determined. Cell viability was determined by means of the alamarBlue® reagent (Invitrogen) in a Victor X3 Multilabel Reader (Perkin Elmer). The excitation wavelength was 530 nm and the emission wavelength […].
# The MOLM-13 cells (DSMZ, ACC 554) were sown at a concentration of 4000 cells/well in 100 μl of growth medium (RPMI1640, 10% FCS) on 96-well microtitre plates.
# (§2) The MDA-MB-231 cells (DSMZ, ACC 732) were sown at a concentration of 4000 cells/well in 100 μl of growth medium (DMEM/Ham's F12 medium, 10% FCS) on 96-well microtitre plates. After overnight incubation at 37° C., the fluorescence values (CI values) were determined. Then the plates were treated with various substance dilutions (1E-5 M, 3E-6 M, 1E-6 M, 3E-7 M, 1E-7 M, 3E-8 M, 1E-8 M) and incubated at 37° C. for 72 (MV4-11, LOX-IMVI cells), 96 (MOLM-13, B16F10, […] cells), 120 (MOLP-8, KMS-12-PE cells) or 168 (LAPC-4 cells) hours. Subsequently, the fluorescence values were determined (CO values). For the data analysis, the CI values were subtracted from the CO values and the results were compared between cells which had been treated with various dilutions of the substance or only with buffer solution. This was used to calculate the IC50 values (substance concentration required for 50% inhibition of cell proliferation).
# (§3) The substances were examined in the cell lines of Table 1 which, in an exemplary manner, represent the stated indications: […]
# BRD4 (BD1) = biological target: T1, BRD4 (BD1) (Homo sapiens, UniProt O60885); assay: Binding assay BRD4/acetylated peptide H4 (TR-FRET protein-protein interaction assay); conditions: BRD4 (BD1) / acetylated histone H4 peptide
# T1 construct: longer constructs also being possible, preferably amino acids 44-168; made in house; host or cells: E. coli
# Excerpt: To assess the BRD4 binding strength of the substances described in this application, the ability thereof to inhibit the interaction between BRD4 (BD1) and acetylated histone H4 in a dose-dependent manner was quantified.
# For this purpose, a time-resolved fluorescence resonance energy transfer (TR-FRET) assay was used, which measures the binding between N-terminally His6-tagged BRD4 (BD1) (amino acids 67-152, longer constructs also being possible, preferably amino acids 44-168) and a synthetic acetylated histone H4 (Ac—H4) peptide with sequence GRGK(Ac)GGK(Ac)GLGK(Ac)GGAK(Ac)RHGSGSK-biotin. The recombinant BRD4 protein produced in-house according to Filippakopoulos et al., Nature, 2010, 468:1119-1123 was expressed in E. coli and purified by means of (Ni-NTA) affinity and (Sephadex G-75) size exclusion chromatography. The Ac—H4 peptide can be purchased, for example, from Biosyntan (Berlin, Germany).
# In the assay, typically 11 different concentrations of each substance (0.1 nM, 0.33 nM, 1.1 nM, 3.8 nM, 13 nM, 44 nM, 0.15 μM, 0.51 μM, 1.7 μM, 5.9 μM and 20 μM) were analysed as duplicates on the same microtitre plate. For this purpose, 100-fold concentrated solutions in DMSO were prepared by serial dilutions (1:3.4) of a 2 mM stock solution into a clear, 384-well microtitre plate (Greiner Bio-One, Frickenhausen, Germany). From this, 50 nl were transferred into a black test plate (Greiner Bio-One, Frickenhausen, Germany). The test was started by the addition of 2 μl of a 2.5-fold concentrated BRD4 solution (final concentration typically 10 nM in the 5 μl of reaction volume) in aqueous assay buffer [50 mM HEPES pH 7.5, 50 mM sodium chloride (NaCl), 0.25 mM CHAPS and 0.05% serum albumin (BSA)] to the substances in the test plate. This was followed by a 10-minute incubation step at 22° C. for the pre-equilibration of putative complexes between BRD4 and the substances.
# The mixture was then incubated in the dark at 22° C. for one hour and then at 4° C. for at least 3 hours and for no longer than overnight. The formation of BRD4/Ac—H4 complexes was determined by the measurement of the resonance energy transfer from the streptavidin-Eu cryptate to the anti-6His-XL665 antibody present in the reaction. For this purpose, the fluorescence emission was measured at 620 nm and 665 nm after excitation at 330-350 nm in a TR-FRET measuring instrument, for example a Rubystar or Pherastar (both from BMG Lab Technologies, Offenburg, Germany) or a Viewlux (Perkin-Elmer). The ratio of the emissions at 665 nm and at […] was taken as an indicator of the amount of BRD4/Ac—H4 complexes formed.
# The data (ratios) obtained were normalized, with 0% inhibition corresponding to the mean from the measurements for a set of controls (typically 32 data points) in which all the reagents were present. In these, in place of test substances, 50 nl of DMSO (100%) were used. Inhibition of 100% corresponded to the mean from the measurements for a set of controls (typically 32 data points) in which all the reagents except BRD4 were present. The IC50 was determined by regression analysis based on a 4-parameter equation (minimum, maximum, IC50, Hill; Y=max+(min−max)/(1+(X/IC50)^Hill)).
# MOLP-8 cells = assay: Cell proliferation assay (alamarBlue), MOLP-8; assay type: cell-based; conditions: Homo sapiens, MOLP-8; multiple myeloma cell line, 120 h incubation
# Experimental: as §1
# The MOLP-8 cells (DSMZ, ACC 569) were sown at a concentration of 4000 cells/well in 100 μl of growth medium (RPMI1640, 20% FCS) on 96-well microtitre plates.
# as §2, §3
Structure (SMILES),IC50 (MOLM-13 cells) [nM],IC50 (BRD4 (BD1)) [nM],IC50 (MOLP-8 cells) [nM]
"CNC(=O)N1N=C(c2ccc(N3[C@@H]4CC[C@H]3CC(=O)C4)cc2)c2cc(OC)c(OC)cc2C[C@H]1C [Example 6.1, (4R)-7,8-dimethoxy-N,4 dimethyl-1-[4-(3-oxo-8-azabicyclo[3.2.1]oct-8-yl)phenyl]-4,5-dihydro-3H-2,3-benzodiazepine-3-carboxamide]",450,1230,–
"CNC(=O)N1N=C(c2ccc(N3CC4(COC4)C3)cc2)c2cc(OC)c(OC)cc2CC1C (racemic) [Example 5, (±)-7,8-dimethoxy-N,4-dimethyl-1-[4-(2-oxa-6-azaspiro[3.3]hept-6-yl)phenyl]-4,5-dihydro-3H-2,3-benzodiazepine-3-carboxamide]",210,20,–
"CNC(=O)N1N=C(c2ccc(N3CC4(CCS4(=O)=O)C3)cc2)c2cc(OC)c(OC)cc2CC1C (racemic) [Example 3, 1-[4-(1,1-dioxido-1-thia-6-azaspiro[3.3]hept-6-yl)phenyl]-7,8-dimethoxy-N,4-dimethyl-4,5-dihydro-3H-2,3-benzodiazepine-3-carboxamide]",150,20,–
"CNC(=O)N1N=C(c2ccc(-c3ccc4c(c3)CCO4)cc2)c2cc(OC)c(OC)cc2CC1C (racemic) [Example 22, (±)-1-[4-(2,3-dihydro-1-benzofuran-5-yl)phenyl]-7,8-dimethoxy-N,4-dimethyl-4,5-dihydro-3H-2,3-benzodiazepine-3-carboxamide]",550,50,–
"CNC(=O)N1N=C(c2ccc(-c3ccc4c(c3)OCCO4)cc2)c2cc(OC)c(OC)cc2CC1C (racemic) [Example 21, (±)-1-[4-(2,3-dihydro-1,4-benzodioxin-6-yl)phenyl]-7,8-dimethoxy-N,4-dimethyl-4,5-dihydro-3H-2,3-benzodiazepine-3-carboxamide]",710,90,–
"CNC(=O)N1N=C(c2ccc(N3C[C@H]4CC[C@@H](C3)O4)cc2)c2cc(OC)c(OC)cc2C[C@H]1C [Example 4.1, (4R)-7,8-dimethoxy-N,4-dimethyl-1-[4-(8-oxa-3-azabicyclo[3.2.1]oct-3-yl)phenyl]-4,5-dihydro-3H-2,3-benzodiazepine-3-carboxamide]",6090,1850,–
"CNC(=O)N1N=C(c2ccc(N3[C@@H]4CC[C@H]3CC(=O)C4)cc2)c2cc(OC)c(OC)cc2CC1C (mixture of isomers) [Example 6, (±)-7,8-dimethoxy-N,4-dimethyl-1-[4-(3-oxo-8-azabicyclo[3.2.1]oct-8-yl)phenyl]-4,5-dihydro-3H-2,3-benzodiazepine-3-carboxamide]",180,30,–
"CNC(=O)N1N=C(c2ccc(N3[C@@H]4CC[C@H]3CC(=O)C4)cc2)c2cc(OC)c(OC)cc2C[C@@H]1C [Example 6.2, (4S)-7,8-dimethoxy-N,4-dimethyl-1-[4-(3-oxo-8-azabicyclo[3.2.1]oct-8-yl)phenyl]-4,5-dihydro-3H-2,3-benzodiazepine-3-carboxamide]",50,20,–

# Further compounds by falling IC50 (MOLM-13 cells), results first:
IC50 (MOLM-13 cells) [nM],IC50 (BRD4 (BD1)) [nM],Structure (SMILES),IC50 (MOLP-8 cells) [nM]
560,90,"CNC(=O)N1N=C(c2cccc(N3CC4CCC(C3)O4)c2)c2cc(OC)c(OC)cc2CC1C (racemic) [Example 13, (±)-7,8-dimethoxy-N,4-dimethyl-1-[3-(8-oxa-3-azabicyclo[3.2.1]oct-3-yl)phenyl]-4,5-dihydro-3H-2,3-benzodiazepine-3-carboxamide]",–
550,60,"CNC(=O)N1N=C(c2ccc(-c3cncc4ccccc34)cc2)c2cc(OC)c(OC)cc2CC1C (racemic) [Example 26, (±)-1-[4-(isoquinolin-4-yl)phenyl]-7,8-dimethoxy-N,4-dimethyl-4,5-dihydro-3H-2,3-benzodiazepine-3-carboxamide]",–
530,50,"CNC(=O)N1N=C(c2ccc(-c3ccc4c(ccn4C)c3)cc2)c2cc(OC)c(OC)cc2CC1C (racemic) [Example 25, (±)-7,8-dimethoxy-N,4-dimethyl-1-[4-(1-methyl-1H-indol-5-yl)phenyl]-4,5-dihydro-3H-2,3-benzodiazepine-3-carboxamide]",–
390,70,"CNC(=O)N1N=C(c2ccc(-c3ccnc4ccccc34)cc2)c2cc(OC)c(OC)cc2CC1C (racemic) [Example 24, (±)-1-[4-(quinolin-4-yl)phenyl]-7,8-dimethoxy-N,4-dimethyl-4,5-dihydro-3H-2,3-benzodiazepine-3-carboxamide]",–
250,60,"CNC(=O)N1N=C(c2ccc(-c3cccc4ncccc34)cc2)c2cc(OC)c(OC)cc2CC1C (racemic) [Example 23, (±)-1-[4-(quinolin-5-yl)phenyl]-7,8-dimethoxy-N,4-dimethyl-4,5-dihydro-3H-2,3-benzodiazepine-3-carboxamide]",–
220,90,"CNC(=O)N1N=C(c2ccc(N3C[C@H]4CN(C)C[C@H]4C3)cc2)c2cc(OC)c(OC)cc2CC1C (mixture of isomers) [Example 33, (±)-7,8-dimethoxy-N,4-dimethyl-1-{4-[(3aR,6aS)-5-methylhexahydropyrrolo[3,4-c]pyrrol-2(1H)-yl]phenyl}-4,5-dihydro-3H-2,3-benzodiazepine-3-carboxamide]",110
140,30,"CNC(=O)N1N=C(c2ccc(N3C(=O)C4CCC3C4)cc2)c2cc(OC)c(OC)cc2CC1C (stereo not drawn) [Example 1, [1S-(1R*,4S*)]-7,8-Dimethoxy-N,4-dimethyl-1-[4-(3-oxo-2-azabicyclo[2.2.1]hept-2-yl)phenyl]-4,5-dihydro-3H-2,3-benzodiazepine-3-carboxamide]",–
110,20,"CNC(=O)N1N=C(c2ccc(N3CC4(COC4)C3)cc2)c2cc(OC)c(OC)cc2C[C@@H]1C [Example 5.1, (4S)-7,8-dimethoxy-N,4-dimethyl-1-[4-(2-oxa-6-azaspiro[3.3]hept-6-yl)phenyl]-4,5-dihydro-3H-2,3-benzodiazepine-3-carboxamide]",–
100,30,"CNC(=O)N1N=C(c2ccc(N3C[C@H]4CC[C@@H](C3)O4)cc2)c2cc(OC)c(OC)cc2CC1C (mixture of isomers) [Example 4, (±)-7,8-dimethoxy-N,4-dimethyl-1-[4-(8-oxa-3-azabicyclo[3.2.1]oct-3-yl)phenyl]-4,5-dihydro-3H-2,3-benzodiazepine-3-carboxamide]",–
